Experimental data as given in patent US9458154B2, “Kinase inhibitors” (Chiesi Farmaceutici S.p.A., priority 2011, dated 2016).

Target: T1, p38alpha (Homo sapiens, UniProt Q16539)
T1 construct: purchased Invitrogen PV3304
Assay: P38alpha Enzyme Inhibition Assay (Alphascreen kinase activity assay)
Type: biochemical
Settings: 100 pM p38alpha, ATF-2 fusion protein substrate, 250 μM ATP, 2 hours preincubation at 25° C.; read-out: p38α inhibition
Protocol: P38alpha Enzyme Inhibition Assay
The inhibitory activity of compounds was determined using an Alphascreen® (Perkin Elmer) based kinase activity assay. Kinase reactions consisted of 25 mM HEPES pH 7.5, 10 mM MgCl2, 100 μM Na3VO4, 2 mM DTT, 0.05 mg/ml Tween 20, 100 pM p38alpha (Invitrogen, PV3304), 1% DMSO and 0.3 μg/ml ATF-2 fusion protein (New England Biolabs, 9224). Compounds were incubated under these conditions for 2 hours, at 25° C., prior to the initiation of the kinase activity by the addition of the 250 μM ATP. Reaction volumes were 20 uL. After 1 hr at 25° C. reactions were stopped by the adding 10 uL of 25 mM HEPES pH 7.5 containing 62.5 mM EDTA, 0.05% Triton X-100, 10% BSA and 0.83 ng/uL anti-phospho-ATF2 antibody (Abcam, ab28812). Detection was performed by measuring luminescence following the addition of Alphascreen Donor beads (Perkin Elmer 6765300) and Protein A Alphascreen Acceptor beads (Perkin Elmer 6760137), both at a final concentration of 20 ug/ml. IC50 values were determined from concentration-response curves.

T1 sequence (Q16539 whole entry): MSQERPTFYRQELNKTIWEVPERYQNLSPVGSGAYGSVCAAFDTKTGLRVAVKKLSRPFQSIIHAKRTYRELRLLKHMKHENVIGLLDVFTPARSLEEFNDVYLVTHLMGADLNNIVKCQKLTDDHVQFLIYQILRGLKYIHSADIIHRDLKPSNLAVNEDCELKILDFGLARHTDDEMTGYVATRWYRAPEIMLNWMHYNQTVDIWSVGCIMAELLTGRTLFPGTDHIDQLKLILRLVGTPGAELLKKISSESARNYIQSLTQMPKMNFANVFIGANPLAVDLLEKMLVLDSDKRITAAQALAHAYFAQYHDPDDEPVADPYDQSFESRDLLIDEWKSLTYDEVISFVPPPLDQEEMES

SMILES | IC50
CC(C)c1nnc2ccc(O[C@@H]3CC[C@H](NC(=O)Nc4cc(C(C)(C)C)nn4-c4ccc(F)c(CN5CCOCC5)c4)c4ccccc43)cn12 [Example 31, 1-{5-tert-Butyl-2-(4-fluoro-3-morpholin-4-ylmethyl-phenyl)-2H-pyrazol-3-yl}-3-[(1S,4R)-4-(3-isopropyl-[1,2,4]triazolo[4,3-a]pyridin-6-yloxy)-1,2,3,4-tetrahydro-naphthalen-1-yl]-urea] | < 10 nM
CC(C)c1nnc2ccc(O[C@H]3CC[C@H](NC(=O)Nc4cc(F)cc(N5CCOCC5)c4)c4ccccc43)cn12 [Example 30, 1-(3-Fluoro-5-morpholin-4-yl-phenyl)-3-[(1S,4S)-4-(3-isopropyl-[1,2,4]triazolo[4,3-a]pyridin-6-yloxy)-1,2,3,4-tetrahydro-naphthalen-1-yl]-urea] | < 10 nM
CC(C)c1nnc2ccc(O[C@@H]3CC[C@H](NC(=O)Nc4cc(C(C)(C)C)nn4-c4cccc(OCCN5CCOCC5)c4)c4ccccc43)cn12 [Example 6, 1-{5-tert-Butyl-2-[3-(2-morpholin-4-yl-ethoxy)-phenyl]-2H-pyrazol-3-yl}-3-[(1S,4R)-4-(3-isopropyl-[1,2,4]triazolo[4,3-a]pyridin-6-yloxy)-1,2,3,4-tetrahydro-naphthalen-1-yl]-urea] | < 10 nM
COc1c(NC(=O)N[C@H]2CC[C@@H](Oc3ccc4nnc(C(C)C)n4c3)c3ccccc32)cc(C(C)(C)C)cc1NS(C)(=O)=O [Example 28, N-(5-tert-Butyl-3-{3-[(1S,4R)-4-(3-isopropyl-[1,2,4]triazolo[4,3-a]pyridin-6-yloxy)-1,2,3,4-tetrahydro-naphthalen-1-yl]-ureido}-2-methoxy-phenyl)-methanesulfonamide] | < 10 nM
CC(C)c1nnc2ccc(O[C@@H]3CC[C@H](NC(=O)Nc4cc(C(C)(C)C)nn4-c4ccc(Cl)c(O)c4)c4ccccc43)cn12 [Example 14, 1-(5-tert-Butyl-2-(4-chloro-3-hydroxyphenyl)-2H-pyrazol-3-yl)-3-[(1S,4R)-4-(3-isopropyl-[1,2,4]triazolo[4,3-a]pyridin-6-yloxy)-1,2,3,4-tetrahydronaphthalen-1-yl]-urea] | < 10 nM
Cc1ccc(-n2nc(C(C)(C)C)cc2NC(=O)N[C@H]2CC[C@@H](Oc3ccc4nnc(-c5ccccc5SCCO)n4c3)c3ccccc32)cc1 [Example 10] | < 10 nM
CC(C)c1nnc2ccc(O[C@H]3CC[C@H](NC(=O)Nc4cc(C(C)(C)C)nn4-c4ccc(O)c(Cl)c4)c4ccccc43)cn12 [Example 25, 1-[5-tert-Butyl-2-(3-chloro-4-hydroxy-phenyl)-2H-pyrazol-3-yl]-3-[(1S,4S)-4-(3-isopropyl-[1,2,4]triazolo[4,3-a]pyridin-6-yloxy)-1,2,3,4-tetrahydro-naphthalen-1-yl]-urea] | < 10 nM
Cc1ccc(-n2nc(C(C)(C)C)cc2NC(=O)N[C@H]2CC[C@@H](Oc3ccc4nnc(C5CC5)n4c3)c3ccccc32)cc1 [Example 21, 1-(5-tert-Butyl-2-p-tolyl-2H-pyrazol-3-yl)-3-[(1S,4R)-4-(3-cyclopropyl-[1,2,4]triazolo[4,3-a]pyridin-6-yloxy)-1,2,3,4-tetrahydro-naphthalen-1-yl}-urea] | < 10 nM
Cc1ccc(-n2nc(C(C)(C)C)cc2NC(=O)N[C@H]2CC[C@@H](Oc3ccc4nnc(C5CCCCC5)n4c3)c3ccccc32)cc1 [Example 26, 1-(5-tert-Butyl-2-p-tolyl-2H-pyrazol-3-yl)-3-[(1S,4R)-4-(3-cyclohexyl-[1,2,4]triazolo[4,3-a]pyridin-6-yloxy)-1,2,3,4-tetrahydro-naphthalen-1-yl]-urea] | < 10 nM
CC(C)c1nnc2ccc(O[C@H]3CC[C@H](NC(=O)Nc4cc(C(C)(C)C)nn4-c4ccc(Cl)c(O)c4)c4ccccc43)cn12 [Example 27, 1-[5-tert-Butyl-2-(4-chloro-3-hydroxy-phenyl)-2H-pyrazol-3-yl]-3-[(1S,4S)-4-(3-isopropyl-[1,2,4]triazolo[4,3-a]pyridin-6-yloxy)-1,2,3,4-tetrahydro-naphthalen-1-yl]-urea] | < 10 nM
Cc1ccc(-n2nc(C(C)(C)C)cc2NC(=O)N[C@H]2CC[C@@H](Oc3ccc4nnc(-c5ccccn5)n4c3)c3ccccc32)cc1 [Example 22, 1-(5-tert-Butyl-2-p-tolyl-2H-pyrazol-3-yl)-3-[(1S,4R)-4-(3-pyridin-2-yl-[1,2,4]triazolo[4,3-a]pyridin-6-yloxy)-1,2,3,4-tetrahydro-naphthalen-1-yl}-urea] | < 10 nM
Cc1ccc(-n2nc(C(C)(C)C)cc2NC(=O)N[C@H]2CC[C@@H](Oc3ccc4nnc(C(C)(C)C)n4c3)c3ccccc32)cc1 [Example 16, 1-(5-tert-Butyl-2-p-tolyl-2H-pyrazol-3-yl)-3-[(1S,4R)-4-(3-tert-butyl-[1,2,4]triazolo[4,3-a]pyridin-6-yloxy)-1,2,3,4-tetrahydro-naphthalen-1-yl]-urea] | < 10 nM
CC(C)c1nnc2ccc(O[C@H]3C[C@H](NC(=O)Nc4cc(C(C)(C)C)on4)c4ccccc43)cn12 [Example 8, 1-(5-tert-Butyl-isoxazol-3-yl)-3-[(1S,3S)-3-(3-isopropyl-[1,2,4]triazolo[4,3-a]pyridin-6-yloxy)-indan-1-yl]-urea] | < 10 nM
CC(C)c1nnc2ccc(O[C@@H]3CC[C@H](NC(=O)Nc4cc(C(C)(C)C)nn4-c4ccc(O)c(Cl)c4)c4ccccc43)cn12 [Example 12, 1-[5-tert-Butyl-2-(3-chloro-4-hydroxy-phenyl)-2H-pyrazol-3-yl]-3-[(1S,4R)-4-(3-isopropyl-[1,2,4]triazolo[4,3-a]pyridin-6-yloxy)-1,2,3,4-tetrahydro-naphthalen-1-yl]-urea] | < 10 nM
CC(C)c1nnc2ccc(O[C@@H]3CC[C@H](NC(=O)NC4CC4)c4ccccc43)cn12 [Example 13, 1-Cyclopropyl-3-[(1S,4R)-4-(3-isopropyl-[1,2,4]triazolo[4,3-a]pyridin-6-yloxy)-1,2,3,4-tetrahydro-naphthalen-1-yl]-urea] | 10 to 100 nM
Cc1ccc(-n2nc(C(C)(C)C)cc2NC(=O)N[C@H]2CC[C@@H](Oc3ccc4nnc(-c5ccccc5OCc5ccccc5)n4c3)c3ccccc32)cc1 [Example 24, 1-{(1S,4R)-4-[3-(2-Benzyloxy-phenyl)-[1,2,4]triazolo[4,3-a]pyridin-6-yloxy)-1,2,3,4-tetrahydro-naphthalen-1-yl}-3-(5-tert-butyl-2-p-tolyl-2H-pyrazol-3-yl)-urea] | < 10 nM
CC(C)c1nnc2ccc(O[C@@H]3CC[C@H](NC(=O)Nc4cc(C(C)(C)C)on4)c4ccccc43)cn12 [Example 17, 1-(5-tert-Butyl-isoxazol-3-yl)-3-[(1S,4R)-4-(3-isopropyl-[1,2,4]triazolo[4,3-a]pyridin-6-yloxy)-1,2,3,4-tetrahydro-naphthalen-1-yl]-urea] | < 10 nM
Cc1ccc(-n2nc(C(C)(C)C)cc2NC(=O)N[C@H]2CC[C@@H](Oc3ccc4nnc(-c5c(Cl)cccc5Cl)n4c3)c3ccccc32)cc1 [Example 20] | < 10 nM
Cc1ccc(-n2nc(C(C)(C)C)cc2NC(=O)N[C@@H]2C[C@@H](Sc3ccc4nnc(C(C)C)n4c3)c3ccccc32)cc1 (racemic) [Example 3, (±)-trans-1-(5-tert-Butyl-2-p-tolyl-2H-pyrazol-3-yl)-3-[3-(3-isopropyl-[1,2,4]triazolo[4,3-a]pyridin-6-ylsulfanyl)-indan-1-yl]-urea] | < 10 nM
CC(C)c1nnc2ccc(O[C@@H]3CC[C@H](NC(=O)Nc4cc(C(C)(C)C)nn4-c4ccc(O)cc4)c4ccccc43)cn12 [Example 15, 1-[5-tert-Butyl-2-(4-hydroxy-phenyl)-2H-pyrazol-3-yl]-3-[(1S,4R)-4-(3-isopropyl-[1,2,4]triazolo[4,3-a]pyridin-6-yloxy)-1,2,3,4-tetrahydro-naphthalen-1-yl]-urea] | < 10 nM
Cc1ccc(-n2nc(C(C)(C)C)cc2NC(=O)N[C@H]2CC[C@@H](Oc3ccc4nnc(C5CCCC5)n4c3)c3ccccc32)cc1 [Example 18, 1-(5-tert-Butyl-2-p-tolyl-2H-pyrazol-3-yl)-3-[(1S,4R)-4-(3-cyclopentyl-[1,2,4]triazolo[4,3-a]pyridin-6-yloxy)-1,2,3,4-tetrahydro-naphthalen-1-yl]-urea] | < 10 nM
Cc1ccc(-n2nc(C(C)(C)C)cc2NC(=O)N[C@H]2CC[C@@H](Oc3ccc4nnc(-c5ccccc5Cl)n4c3)c3ccccc32)cc1 [Example 23] | < 10 nM
Cc1ccc(-n2nc(C(C)(C)C)cc2NC(=O)N[C@H]2CC[C@@H](Oc3ccc4nnc(-c5cccc(OCCN6CCOCC6)c5)n4c3)c3ccccc32)cc1 [Example 4, 1-(5-tert-Butyl-2-p-tolyl-2H-pyrazol-3-yl)-3-[(1S,4R)-4-{3-[3-(2-morpholin-4-yl-ethoxy)-phenyl]-[1,2,4]triazolo[4,3-a]pyridin-6-yloxy}-1,2,3,4-tetrahydro-naphthalen-1-yl)-urea] | < 10 nM
Cc1ccc(-n2nc(C(C)(C)C)cc2NC(=O)N[C@H]2CC[C@@H](Oc3ccc4nnc(-c5ccccc5O)n4c3)c3ccccc32)cc1 [Example 7, 1-(5-tert-Butyl-2-p-tolyl-2H-pyrazol-3-yl)-3-{(1S,4R)-4-(3-(2-hydroxy-phenyl)-[1,2,4]triazolo[4,3-a]pyridin-6-yloxy)-1,2,3,4-tetrahydro-naphthalen-1-yl}-urea] | < 10 nM
